What was measured:
Assay type in all cases: cell-based
[1] = system: Streptococcus oralis; assay: MIC of clinical trial isolates, Studies 373, 433, 434; details: N 18
Method: (§1) PFGE testing was performed per standard procedures.
(§2) The antibacterial susceptibility profile of each Visit 1 bacterial isolate was determined for besifloxacin and other antimicrobials.

[2] = system: H. influenzae; assay: as above; details: Haemophilus influenzae, all phenotypes, N 344
Method: as §1, §2

[3] = system: S. pneumoniae; assay: as above; details: Streptococcus pneumoniae, all phenotypes, N 302
Method: as §1, §2

[4] = system: S. mitis group; assay: as above; details: Streptococcus mitis group, N 45
Method: as §1, §2

[5] = system: CDC coryneform group G; assay: as above; details: N 29
Method: as §1, §2

[6] = system: Streptococcus salivarius; assay: as above; details: N 9
[7] = system: S. aureus; assay: as above; details: Staphylococcus aureus, all phenotypes, N 190
[8] = system: Streptococcus mitis; assay: as above; details: Streptococcus mitis (listed separately from S. mitis group), N 20
Method: PFGE testing was performed per standard procedures. […] Analysis Populations

[9] = system: S. epidermidis; assay: as above; details: Staphylococcus epidermidis, all phenotypes, N 111
[10] = system: Staphylococcus hominis; assay: as above; details: N 9
[11] = system: Corynebacterium striatum; assay: as above; details: N 8
[12] = system: Staphylococcus lugdunensis; assay: as above; details: N 8
[13] = system: Corynebacterium pseudodiphtheriticum; assay: as above; details: N 8
[14] = system: baseline pathogens of bacterial conjunctivitis patients; assay: MIC of baseline clinical trial isolates, Studies 373, 433, 434 (all species)

| SMILES | MIC50 [1] [µg/mL] | MIC90 [1] [µg/mL] | MIC Range [1] [µg/mL] | MIC50 [2] [µg/mL] | MIC90 [2] [µg/mL] | MIC50 [3] [µg/mL] | MIC90 [3] [µg/mL] | MIC50 [4] [µg/mL] | MIC90 [4] [µg/mL] | MIC50 [5] [µg/mL] | MIC90 [5] [µg/mL] | MIC50 [6] [µg/mL] | MIC Range [6] [µg/mL] | MIC50 [7] [µg/mL] | MIC90 [7] [µg/mL] | MIC50 [8] [µg/mL] | MIC90 [8] [µg/mL] | MIC Range [8] [µg/mL] | MIC50 [9] [µg/mL] | MIC90 [9] [µg/mL] | also measured |
| --- | --- | --- | --- | --- | --- | --- | --- | --- | --- | --- | --- | --- | --- | --- | --- | --- | --- | --- | --- | --- | --- |
| C[C@H]1COc2c(N3CCN(C)CC3)c(F)cc3c(=O)c(C(=O)O)cn1c23 [LEVO] | 1 | 2 | 0.125 to 2 | 0.03 | 0.03 | 0.5 | 1 | 1 | 2 | 0.06 | 1 | 1 | 1 to 2 | 0.25 | 8 | 1 | 1 | 0.5 to 2 | 0.25 | 8 | MIC Range [2]: ≦0.004-1 μg/mL; MIC Range [3]: 0.125 to 2 µg/mL; MIC50 [10]: 0.125 µg/mL; MIC Range [10]: 0.125 to 4 µg/mL; MIC50 [11]: 0.06 µg/mL; MIC Range [11]: 0.03 to 4 µg/mL; MIC50 [12]: 0.25 µg/mL; MIC Range [12]: 0.25 to 2 µg/mL; MIC50 [13]: 0.5 µg/mL; MIC Range [13]: 0.06 to 1 µg/mL; MIC50 ([14]; All organisms, N 1324): 0.25 µg/mL; MIC90 ([14]; All organisms, N 1324): 1 µg/mL; MIC50 ([14]; Gram-negative, N 438): 0.03 µg/mL; MIC90 ([14]; Gram-negative, N 438): 0.125 µg/mL; MIC Range ([14]; Gram-negative, N 438): ≦0.004-8 μg/mL; MIC50 ([14]; Gram-positive, N 886): 0.5 µg/mL; MIC90 ([14]; Gram-positive, N 886): 2 µg/mL |
| CC1COc2c(N3CCN(C)CC3)c(F)cc3c(=O)c(C(=O)O)cn1c23 (centres unmarked) [OFLOX] | 2 | 4 | 0.125 | 0.03 | 0.06 | 1 | 2 | 2 | 4 | 0.125 | 2 | 2 | 2 to 4 | 0.5 | >8 | 2 | 2 | 1 to 4 | 0.5 | >8 | MIC Range [4]: 0.25 µg/mL; MIC Range [9]: 0.25 µg/mL; MIC50 [10]: 0.25 µg/mL; MIC Range [10]: 0.25 µg/mL; MIC50 [11]: 0.125 µg/mL; MIC50 [12]: 1 µg/mL; MIC50 [13]: 1 µg/mL; MIC Range [13]: 0.125 to 2 µg/mL; MIC50 ([14]; All organisms, N 1324): 0.5 µg/mL; MIC90 ([14]; All organisms, N 1324): 2 µg/mL; MIC50 ([14]; Gram-negative, N 438): 0.03 µg/mL; MIC90 ([14]; Gram-negative, N 438): 0.25 µg/mL; MIC50 ([14]; Gram-positive, N 886): 1 µg/mL; MIC90 ([14]; Gram-positive, N 886): 4 µg/mL |
